Source: paper PMC11341654 (2024)

What was measured:
[1] = UV irradiation in solution; settings: cited from earlier work
[2] = protonated peptides irradiated in the gas phase; VUV or soft X-ray photon, carbon ions; settings: cited from earlier work
[3] = deprotonated peptide anions in the gas phase, UV photoabsorption at 220 nm (ion trap); settings: up to 100–500 ms
[4] = isolated peptide ions in the gas phase (ion trap), UV photoabsorption at 220 nm; settings: up to 100–500 ms
[5] = gas phase; photoabsorption in the VUV as well as X-ray photon energy range (30 to 545 eV); settings: cited from earlier work

Row | Substance | cleaved bond [1] | cleaved bond [2] | cleaved bond [3] | cleaved bond [4] | cleaved bond [5]
1 | (POG)10 | Gly-Pro, major | Gly-Pro, major |  |  | 
2 | (PPG)10 | Gly-Pro, major | Gly-Pro, major |  |  | 
3 | PGGPPGPKGNSGEPGAPGSKGDTGAK |  |  | G-P and P-P and E-P and A-P | Gly-Pro, major and Pro-Pro and Glu-Pro and Ala-Pro and Asp-Thr and K-G | Gly-Pro, major
